# Laboratory results reported in ChEMBL document CHEMBL4043194, “Nrf2 activators from Glycyrrhiza inflata and their hepatoprotective activities against CCl4-induced liver injury in mice” (Bioorg Med Chem, 2017).
# Target: T1, Nuclear factor erythroid 2-related factor 2 (Homo sapiens) (UniProt Q16236)
# T1 sequence (whole entry): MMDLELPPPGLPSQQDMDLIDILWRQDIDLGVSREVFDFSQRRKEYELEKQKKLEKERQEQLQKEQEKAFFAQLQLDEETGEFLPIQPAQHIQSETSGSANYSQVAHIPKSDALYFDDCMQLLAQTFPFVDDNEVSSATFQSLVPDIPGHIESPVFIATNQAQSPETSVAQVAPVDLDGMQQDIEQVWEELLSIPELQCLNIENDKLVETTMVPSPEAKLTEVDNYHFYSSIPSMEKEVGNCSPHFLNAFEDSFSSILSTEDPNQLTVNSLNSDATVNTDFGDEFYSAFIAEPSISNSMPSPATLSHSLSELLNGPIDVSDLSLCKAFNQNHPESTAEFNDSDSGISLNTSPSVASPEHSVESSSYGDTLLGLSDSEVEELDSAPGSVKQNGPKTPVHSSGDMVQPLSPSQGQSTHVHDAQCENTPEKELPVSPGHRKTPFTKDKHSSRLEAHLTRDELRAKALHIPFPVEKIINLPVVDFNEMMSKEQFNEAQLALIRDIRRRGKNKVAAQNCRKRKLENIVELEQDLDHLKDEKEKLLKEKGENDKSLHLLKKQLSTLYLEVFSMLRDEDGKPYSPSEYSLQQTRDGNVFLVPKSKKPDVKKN
# Experiment: Activation of Nrf2 (unknown origin) expressed in human HepG2 cells at 2.5 to 10 uM incubated for 6 hrs by ARE-driven luciferase reporter gene assay
# Type: cell-based
# Conditions: not given
row,Activity,Structure (SMILES)
1,Dose-dependent effect,COc1c(/C=C/C(=O)c2ccc(O)cc2)cc(CC=C(C)C)c(O)c1O
2,Dose-dependent effect,C=C(C)[C@H](C)c1cc(/C=C/C(=O)c2ccc(O)cc2)c(OC)cc1O [LICOCHALCONE E]
3,Dose-dependent effect,C=CC(C)(C)c1cc(/C=C/C(=O)c2ccc(O)c(O)c2)c(OC)cc1O

# Target: T1, Nuclear factor erythroid 2-related factor 2 (Homo sapiens)
# Experiment: Activation of Nrf2 (unknown origin) expressed in human HepG2 cells at 10 uM incubated for 6 hrs by ARE-driven luciferase reporter gene assay relative to untreated control
# Type: cell-based
# Conditions: not given
row,fold change (FC),Structure (SMILES)
1,1.91,CC(C)=CCc1c(O)ccc(C(=O)/C=C/c2ccc(O)cc2)c1O
2,2.28,COc1ccc(-c2coc3cc(O)ccc3c2=O)c(O)c1
3,1.4,CC1(C)C=Cc2c(ccc(-c3coc4cc(O)ccc4c3=O)c2O)O1
4,1.81,CC(C)=CCc1c(O)ccc2c1oc1c3ccc(O)cc3oc(=O)c21
5,4.34,CC(C)=CCc1c(O)ccc(-c2cc3ccc(O)cc3o2)c1O [2'-O-DEMETHYLBIDWILLOL B]
6,3.09,C=CC(C)(C)c1cc(/C=C/C(=O)c2ccc(O)cc2)c(OC)c(O)c1O
7,1.23,COc1ccc2c(c1)OC[C@H]1c3ccc(O)cc3O[C@@H]21
8,2.58,CC1(C)C=Cc2c(ccc3c2OC[C@@H](c2ccc(O)cc2O)C3)O1
9,1.37,CC(C)=CCc1c(O)cc2occ(-c3ccc4c(c3O)C=CC(C)(C)O4)c(=O)c2c1O
10,1.22,CC(C)=CCc1cc(/C=C/C(=O)c2ccc(O)c(CC=C(C)C)c2O)ccc1O
11,2.98,CC(C)=CCc1cc(-c2cc(=O)c3c(O)c(CC=C(C)C)c(O)cc3o2)ccc1O
12,1.87,CC(C)=CCc1cc(/C=C/C(=O)c2ccc(O)cc2O)ccc1O
13,1.46,CC(C)=CCc1c(O)c(CC=C(C)C)c2oc(-c3ccc(O)cc3)cc(=O)c2c1O
14,1.54,O=C1C[C@@H](c2cc(O)cc(O)c2)Oc2cc(O)ccc21
15,2.17,CC1(C)C=Cc2c(cc3occ(-c4ccc(O)cc4)c(=O)c3c2O)O1
16,1.42,COc1c(/C=C/C(=O)c2ccc(O)cc2)ccc(O)c1CC=C(C)C
17,1.43,CC1(C)[C@@H](O)CC[C@]2(C)[C@H]3CC=C4[C@@H]5C[C@@](C)(C(=O)O)CC[C@]5(C)CC[C@@]4(C)[C@]3(C)CC[C@@H]12
18,4.53,COc1c(/C=C/C(=O)c2ccc(O)c(CC=C(C)C)c2)ccc(O)c1O [LICOCHALCONE D]
19,1.18,CC1(C)C(=O)CC[C@]2(C)[C@H]3C(=O)C=C4[C@@H]5C[C@@](C)(C(=O)O)CC[C@]5(C)CC[C@@]4(C)[C@]3(C)[C@@H](O)C[C@@H]12
20,1.2,CC(C)=CCc1cc(-c2coc3c(CC=C(C)C)c(O)cc(O)c3c2=O)cc(O)c1O
21,2.36,COc1cc2occ(-c3ccc(O)cc3O)c(=O)c2c(O)c1CC=C(C)C
22,1.05,CC(C)=CCc1cc2c(=O)cc(-c3ccc(O)cc3)oc2cc1O
23,1.91,CC(C)=CCc1cc(-c2coc3cc(O)cc(O)c3c2=O)cc(O)c1O
24,2.65,COc1ccc(-c2coc3cc(O)ccc3c2=O)cc1

row,fold change (FC),Structure (SMILES)
1,1.42,COc1ccc(-c2coc3c(O)c(O)c(CC=C(C)C)cc3c2=O)c(O)c1
2,1.42,CC1(C)C=Cc2c(O)ccc(C3COc4cc(O)cc(O)c4C3=O)c2O1 (centres undefined)
3,1.41,CC(C)=CCc1cc([C@@H]2CC(=O)c3c(O)cc(O)c(CC=C(C)C)c3O2)ccc1O
4,1.49,CC(C)=CCc1c(O)cc2occ(-c3ccc(O)cc3)c(=O)c2c1O
5,1.73,CC(C)=CCc1cc(-c2cc(=O)c3cc4c(cc3o2)OC(C)(C)C=C4)ccc1O
6,1.56,CC(C)=CCc1c(O)cc(O)c2c(=O)c(-c3ccc4c(c3O)C=CC(C)(C)O4)coc12
7,1.06,COc1ccc(C2COc3c(cc(CC=C(C)C)c(O)c3O)C2=O)cc1 (centres undefined)
8,1.47,CC1(C)C=Cc2c(ccc(-c3coc4cc(O)cc(O)c4c3=O)c2O)O1
9,2.49,CC(C)=CCc1c(O)ccc(-c2coc3cc(O)cc(O)c3c2=O)c1O
10,2.33,CC(C)=CCc1c(O)cc2c(c1O)C(=O)[C@H](c1ccc3c(c1O)C=CC(C)(C)O3)CO2
11,1.2,O=c1c(-c2ccc(O)cc2)coc2cc(O)cc(O)c12
12,1.76,CC1(C)C=Cc2c(ccc3c(=O)c(-c4ccc(O)cc4O)coc23)O1
13,2.76,CC1(CO)C=Cc2c(ccc(-c3coc4cc(O)ccc4c3=O)c2O)O1 (centres undefined)
14,1.97,O=C1C[C@@H](c2ccc(O)cc2)Oc2cc(O)ccc21
15,1.34,CC(C)=CCc1c(O)cc2occ(-c3ccc4c(c3)C=CC(C)(C)O4)c(=O)c2c1O
16,1.72,O=C1c2c(O)cc(O)cc2OCC1c1ccc(O)cc1 (centres undefined)
17,4.67,O=C(/C=C/c1ccc(O)cc1)c1ccc(O)cc1O
18,2.3,CC1(C)C=Cc2cc(-c3coc4cc(O)ccc4c3=O)c(O)cc2O1
19,1.87,COc1cc(O)c(-c2coc3cc(O)ccc3c2=O)c(OC)c1CC=C(C)C
20,1.03,CC(C)=CCc1cc2c(=O)cc(-c3ccc4c(c3)C=CC(C)(C)O4)oc2cc1O
21,2.15,CC(C)=CCc1c(O)ccc(-c2coc3cc(O)ccc3c2=O)c1O
22,2.37,CC1(C)C=Cc2cc(/C=C/C(=O)c3ccc(O)cc3O)ccc2O1
23,1.21,CC(C)=CCc1c(O)c(CC=C(C)C)c2occ(-c3ccc(O)cc3)c(=O)c2c1O
24,2.2,CC(C)=CCc1cc([C@@H]2CC(=O)c3ccc(O)cc3O2)ccc1O

row,fold change (FC),Structure (SMILES)
1,2.12,O=C1c2ccc(O)cc2OCC1c1ccc(O)c(O)c1 (centres undefined)
2,1.51,CC(C)=CCc1c(O)cc2occ(-c3cc(O)c4c(c3)C=CC(C)(C)O4)c(=O)c2c1O
3,1.13,CC1(C)C=Cc2cc(-c3coc4cc(O)cc(O)c4c3=O)cc(O)c2O1
4,2.07,COc1c(/C=C/C(=O)c2ccc(O)c(O)c2)ccc(O)c1CC=C(C)C
5,1.56,CC(C)=CCc1c(O)ccc(C(=O)/C=C/c2ccc(O)c(O)c2)c1O
6,1.12,COc1cc(-c2coc3cc(O)ccc3c2=O)ccc1O
7,0.76,CC1(C)C=Cc2cc(-c3coc4cc(O)cc(O)c4c3=O)ccc2O1
8,1.78,CC(C)=CCc1c(O)cc(O)c2c(=O)c(-c3ccc(O)cc3O)coc12
9,1.05,CC(C)=CCc1c(O)ccc(-c2coc3cc(O)c(CC=C(C)C)c(O)c3c2=O)c1O
10,1.23,O=c1cc(-c2ccc(O)cc2)oc2cc(O)ccc12
11,1.59,CC(C)=CCc1cc([C@@H]2CC(=O)c3cc(CC=C(C)C)c(O)cc3O2)ccc1O
12,1.84,CC(C)=CCc1cc([C@@H]2CC(=O)c3ccc(O)cc3O2)cc2c1OC(C)(C)C=C2
13,1.85,O=C(/C=C/c1ccc(O)c(O)c1)c1ccc(O)c(O)c1
14,3.39,COc1c(/C=C/C(=O)c2ccc(O)cc2)cc(CC=C(C)C)c(O)c1O
15,1.21,CC(C)=CCc1cc(C2CC(=O)c3ccc(O)c(CC=C(C)C)c3O2)ccc1O (centres undefined)
16,1.4,CC(C)=CCc1c(O)ccc2c1O[C@H](c1ccc3c(c1)C=CC(C)(C)O3)CC2=O
17,1.88,CC(C)=CCc1c(O)cc(O)c2c1OC[C@@H](c1ccc3c(c1O)C=CC(C)(C)O3)C2=O
18,1.98,CC(C)=CCc1c(O)ccc([C@H]2COc3cc(O)c(CC=C(C)C)c(O)c3C2=O)c1O
19,1.08,CC1(C)C=Cc2c(ccc(-c3cc4ccc(O)cc4o3)c2O)O1
20,1.7,CC1(C)C=Cc2c(O)ccc(-c3coc4cc(O)cc(O)c4c3=O)c2O1
21,5.94,C=C(C)[C@H](C)c1cc(/C=C/C(=O)c2ccc(O)cc2)c(OC)cc1O [LICOCHALCONE E]
22,1.54,COC(C)(C)c1cc2cc3c(=O)cc(-c4ccc(O)c(CC=C(C)C)c4)oc3cc2o1
23,5.98,C=CC(C)(C)c1cc(/C=C/C(=O)c2ccc(O)c(O)c2)c(OC)cc1O
24,1.98,CC(C)=CCc1c(O)ccc(-c2coc3c(CC=C(C)C)c(O)cc(O)c3c2=O)c1O

# Target: T1, Nuclear factor erythroid 2-related factor 2 (Homo sapiens)
# Experiment: Activation of Nrf2 (unknown origin) expressed in human HepG2 cells at 2.5 to 20 uM incubated for 6 hrs by ARE-driven luciferase reporter gene assay
# Type: cell-based
# Conditions: not given
row,Activity,Structure (SMILES)
1,Dose-dependent effect,CC(C)=CCc1c(O)ccc(-c2cc3ccc(O)cc3o2)c1O [2'-O-DEMETHYLBIDWILLOL B]
2,Dose-dependent effect,C=CC(C)(C)c1cc(/C=C/C(=O)c2ccc(O)cc2)c(OC)c(O)c1O
3,Dose-dependent effect,COc1c(/C=C/C(=O)c2ccc(O)c(CC=C(C)C)c2)ccc(O)c1O [LICOCHALCONE D]

# System: HepG2
# Experiment: Cytotoxicity in human HepG2 cells expressing Nrf2/ARE-driven luciferase at 10 to 40 uM incubated for 6 hrs
# Type: cell-based
# Conditions: hepg2, 6 h
row,Structure (SMILES),Activity
1,COc1c(/C=C/C(=O)c2ccc(O)cc2)cc(CC=C(C)C)c(O)c1O,Toxic
2,C=C(C)[C@H](C)c1cc(/C=C/C(=O)c2ccc(O)cc2)c(OC)cc1O [LICOCHALCONE E],Toxic
3,C=CC(C)(C)c1cc(/C=C/C(=O)c2ccc(O)c(O)c2)c(OC)cc1O,Toxic

# System: HepG2
# Experiment: Cytotoxicity in human HepG2 cells expressing Nrf2/ARE-driven luciferase at 20 to 40 uM incubated for 6 hrs
# Type: cell-based
# Conditions: hepg2, 6 h
row,Structure (SMILES),Activity
1,CC(C)=CCc1c(O)ccc(-c2cc3ccc(O)cc3o2)c1O [2'-O-DEMETHYLBIDWILLOL B],Toxic
2,C=CC(C)(C)c1cc(/C=C/C(=O)c2ccc(O)cc2)c(OC)c(O)c1O,Toxic
3,COc1c(/C=C/C(=O)c2ccc(O)c(CC=C(C)C)c2)ccc(O)c1O [LICOCHALCONE D],Toxic
